Consider one compound from patent publication US6469013B2, “Therapeutic compounds” (Parker Hughes Institute, priority 1998, dated 2002).

Like-named read-outs stand apart in the source and are kept apart here.

In the test the test system is NALM-6 human leukemia cells. Nature of the test: Mitochondrial membrane potential (DiIC1, JC-1 flow cytometry). Type of test: cell-based. Particulars: for EC50: Homo sapiens, NALM-6. The protocol:
Mitochondrial membrane potential (Δψm) was measured using two dyes including a lipophillic cation 5,5′,6,6′-tetrachloro-1,1′,3,3′-tetraethlybenzimidazolylcarbocyanine iodide (JC-1) and a cyanine dye, 1,1′,3,3,3′,3′-hexamethylindodicarbocyanine iodide (DiIC1 (27-29)) obtained from Molecular Probes (Eugene, Oreg.). JC-1 is a monomer at 527 nm after being excited at 490 nm; with polarization of Δψm, J-aggregates are formed that shift emission to 590 nm (30). This can be detected on a flow cytometer by assessing the green signal (at 527 nm) and green-orange signal (at 590 nm) simultaneously, creating an index of the number of cells polarized and depolarized mitochondria. DiIC1, a cyanine dye which is amphioatheic and cationic, concentrates in energized mitochondria and has been used in a variety of studies to measure the mitochondrial membrane potential (Fujii, H., et al., Histochem J. 29: 571-581, 1997; Mancini, M., et al., J. Cell Biol. 138: 449-469, 1997; and Petit, P. X., et al., J. Cell Biol. 130: 157-167, 1995). Cells were also stained with DiIC1 at 40 nM concentration for 30 min in the dark as described for JC-1. The cells were analyzed using a Vantage Becton Dickinson (San Jose, Calif.) cell sorter equipped with HeNe laser with excitation at 635 nm and the fluorescence was collected at 666 nm.
To test the cytotoxicity of compound 6 against JAK-3 expressing human leukemia cells, leukemic cells were exposed to this JAK3 inhibitor and monitored for apoptosis-associated changes in mitochondrial membrane potential (Δψm) and mitochondrial mass using specific fluorescent mitochondrial probes and multiparameter flow cytometry. To measure changes in Δψm, DiIC1 (which accumulates in energized mitochondria) was used, whereas the mitochondrial mass was determined by staining the cells with NAO, a fluorescent dye that binds to the mitochondrial inner membrane independent of energetic state. Treatment of NALM-6 leukemia cells with compound 6 at 7.4 μg/ml (25 μM) to 60 μg/ml (200 μM) for 24 h or 48 h increased the number of depolarized mitochondria in a concentration- and time-dependent manner as determined by flow cytometry using DiIC1 (27-29) (FIG. 7A). […] To further confirm this relative change in Δψm, we used JC-1, a mitochondrial dye, which normally exists in solution as a monomer emitting green fluorescence and assumes a dimeric configuration emitting red fluorescence in a reaction driven by mitochondrial transmembrane potential (Smiley, S. T., et al., Proc. Natl. Acad. Sci. U.S. A. 88: 3671-3675, 1991). Thus, the use of JC-1 allows simultaneous analysis of mitochondrial mass (green fluorescence) and mitochondrial transmembrane potential (red/orange fluorescence). After treatment of NALM-6 cells with compound 6 at increasing concentrations ranging from 25 μM to 200 μM and with increasing duration of exposure of 24 h or 48 h, we observed a progressive dissociation between Δψm and mitochondrial mass, with decrement in JC-1 red/orange fluorescence without a significant corresponding drop in JC-1 green fluorescence (FIG. 7C&D).

As for `COc1cc2ncnc(Nc3ccc(O)cc3)c2cc1OC` [WHI-P131, 4-(4′-hydroxyl-phenyl)-amino-6,7-dimethoxyquinazoline], under “200 μM × 48 hours”, the “JC-1 green fluorescence (mitochondrial mass)” value is 99.8%. Moreover, the “fraction of DiIC1-negative cells with depolarized mitochondria” value (200 μM, 48 hours) is listed as 81.6%. Also, the “fraction of JC-1 red/orange fluorescence-negative cells” value (200 μM, 48 hours) turned out to be 16.9%. The EC50 came to 79.3 µM (24 hour treatment, read-out: EC50, depolarization of mitochondria (decreased DiIC1 staining)); 94.2 µM (24 hour treatment, read-out: EC50, depolarization of mitochondria (decreased JC-1 red/orange fluorescence)); 58.4 µM (48 hour treatment, read-out: EC50, depolarization of mitochondria (decreased DiIC1 staining)); 50.4 µM (48 hour treatment, read-out: EC50, depolarization of mitochondria (decreased JC-1 red/orange fluorescence)).
